Assay [1] deals with Mycobacterium tuberculosis. Particulars: against Mycobacterium tuberculosis; reported domestically; cited from earlier work.
Assay [2] concerns M. tuberculosis H37Rv (ATCC 27294). Particulars: reported abroad; cited from earlier work.
The test system of assay [3] is sensitive Mycobacterium tuberculosis. Particulars: reported domestically; cited from earlier work.
A further assay relates to drug-resistant bacteria. Particulars: reported domestically; cited from earlier work.
In assay [4] the test system is Mycobacterium tuberculosis standard strains H37Rv. Particulars: quality control H37Rv.

Like-named read-outs stand apart in the source and are kept apart here.

Take `CC[C@H]1OC(=O)[C@H](C)[C@@H](O[C@H]2C[C@@](C)(OC)[C@@H](O)[C@H](C)O2)[C@H](C)[C@@H](O[C@@H]2O[C@H](C)C[C@H](N(C)C)[C@H]2O)[C@](C)(O)C[C@@H](C)CN(C)[C@H](C)[C@@H](O)[C@]1(C)O` [azithromycin]: the MIC in assay [1] was 128 micrograms/milliliter; in assay [2], 95 micrograms/milliliter.

In the case of `CC[C@H]1OC(=O)[C@H](C)[C@@H](O[C@H]2C[C@@](C)(OC)[C@@H](O)[C@H](C)O2)[C@H](C)[C@@H](O[C@@H]2O[C@H](C)C[C@H](N(C)C)[C@H]2O)[C@](C)(OC)C[C@@H](C)C(=O)[C@H](C)[C@@H](O)[C@]1(C)O` [clarithromycin], the figures for the MIC (in assay [3]; in the assay with drug-resistant bacteria; in assay [2]) were 0.25-2.0 micrograms/milliliter, 2.0-32 micrograms/milliliter and 6 micrograms/milliliter, respectively.

In the case of `CC[C@H]1OC(=O)[C@H](C)[C@@H](O[C@H]2C[C@@](C)(OC)[C@@H](O)[C@H](C)O2)[C@H](C)[C@@H](O[C@@H]2O[C@H](C)C[C@H](N(C)C)[C@H]2O)[C@](C)(O)C[C@@H](C)/C(=N\OCOCCOC)[C@H](C)[C@@H](O)[C@]1(C)O` [roxithromycin], the MIC result in assay [2] is reported as “greater than or equal to 64 micrograms/milliliter”.

`CC[C@H]1OC(=O)C[C@@H](O)[C@H](C)[C@@H](O[C@@H]2O[C@H](C)[C@@H](O[C@H]3C[C@@](C)(O)[C@@H](O)[C@H](C)O3)[C@H](N(C)C)[C@H]2O)[C@@H](CC=O)C[C@@H](C)C(=O)/C=C/C(C)=C/[C@@H]1CO[C@@H]1O[C@H](C)[C@@H](O)[C@@H](OC)[C@H]1OC` [tylosin]: the MIC in assay [2] is listed as 58.6 micrograms/milliliter.

Take carrimycin: the “growth of bacterial colonies on drug-containing culture medium” value in assay [4] (carrimycin 1 μg/ml) was 4+ (positive (4+) if the bacterial colonies closely grow on the slant face of the culture medium and account for ¾ or more of the area of the slant face); in assay [4] (carrimycin 20 μg/ml) it was “−”.

Values taken from patent US11000708B2 (priority 2015, dated 2021).
